# Reference: US20070027150A1 (priority 2005, published 2007)
# Molecular target: His-tagged N-terminal ATP binding domain (amino acid residues 9-236) of HSP90α (Homo sapiens, UniProt P07900)
# Assay: HSP90 inhibitor binding potency: TRF competition binding assay
# Settings: Table I; read-out: Hsp90 IC50 Range
# Outline: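 His-tagged HSP90α N-domain (residues 9-236) incubated 2 h at room temperature with biotinylated radicicol and increasing compound in 50 mM HEPES, 6 mM MgCl2, 20 mM KCl, 0.1% BSA. Bound tracer captured on streptavidin plates, detected with europium anti-His antibody by time-resolved fluorescence; IC50 derived.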
row,IC50 [nM],Compound
1,< 1000,"Cc1nc(N)nc2c1C(=O)CC(c1ccccc1Oc1cnccn1)C2 (stereo not drawn) [Compound 143, 2-amino-4-methyl-7-[2-(pyrazin-2-yloxy)phenyl]-7,8-dihydroquinazolin-5(6H)-one]"
2,1000 to 10000,"Cc1nc(N)nc2c1C(=O)CC(c1ccccc1Oc1ncccn1)C2 (stereo not drawn) [Compound 144, 2-amino-4-methyl-7-[2-(pyrimidin-2-yloxy)phenyl]-7,8-dihydroquinazolin-5(6H)-one]"
3,< 1000,"Cc1nc(N)nc2c1C(=O)CC(c1ccccc1Oc1cccc(F)n1)C2 (stereo not drawn) [Compound 145, 2-amino-7-{2-[(6-fluoropyridin-2-yl)oxy]phenyl}-4-methyl-7,8-dihydroquinazolin-5(6H)-one]"
4,< 1000,"COc1cccc(Oc2ccccc2C2CC(=O)c3c(C)nc(N)nc3C2)n1 (stereo not drawn) [Compound 146, 2-amino-7-{2-[(6-methoxypyridin-2-yl)oxy]phenyl}-4-methyl-7,8-dihydroquinazolin-5(6H)-one]"
5,1000 to 10000,"Cc1nc(N)nc2c1C(=O)CC(c1ccccc1Oc1ccnc(Cl)c1)C2 (stereo not drawn) [Compound 147, 2-amino-7-{2-[(2-chloropyridin-4-yl)oxy]phenyl}-4-methyl-7,8-dihydroquinazolin-5(6H)-one]"
6,< 1000,"CCOc1ccccc1C1CC(=O)c2c(C)nc(N)nc2C1 (stereo not drawn) [Compound 148, 2-amino-7-(2-ethoxy-phenyl)-4-methyl-7,8-dihydro-6H-quinazolin-5-one]"
7,< 1000,"Cc1nc(N)nc2c1C(=O)CC(c1ccccc1OC(C)C)C2 (stereo not drawn) [Compound 149, 2-amino-7-(2-isopropoxy-phenyl)-4-methyl-7,8-dihydro-6H-quinazolin-5-one]"
8,< 1000,"Cc1nc(N)nc2c1C(=O)CC(c1ccccc1OC1CCCC1)C2 (stereo not drawn) [Compound 150, 2-amino-7-(2-cyclopentyloxy-phenyl)-4-methyl-7,8-dihydro-6H-quinazolin-5-one]"
9,< 1000,"CCOc1cccc(-c2cccnc2F)c1C1CC(=O)c2c(C)nc(N)nc2C1 (stereo not drawn) [Compound 151, 2-amino-7-[2-ethoxy-6-(2-fluoro-pyridin-3-yl)-phenyl]-4-methyl-7,8-dihydro-6H-quinazolin-5-one]"
10,1000 to 10000,"Cc1nc(N)nc2c1C(=O)CC(c1ccccc1OCCN1CCN(C)CC1)C2 (stereo not drawn) [Compound 152, 2-amino-4-methyl-7-{2-[2-(4-methyl-piperazin-1-yl)-ethoxy]-phenyl}-7,8-dihydro-6H-quinazolin-5-one]"
11,< 1000,"Cc1nc(N)nc2c1C(=O)CC(c1c(OCCN)cccc1-c1cccnc1F)C2 (stereo not drawn) [Compound 153, 2-amino-7-[2-(2-amino-ethoxy)-6-(2-fluoro-pyridin-3-yl)-phenyl]-4-methyl-7,8-dihydro-6H-quinazolin-5-one]"
12,> 10000,"Cc1nc(N)nc2c1C(=O)CC(c1c(Cl)cccc1OCCN1CCN(C)CC1)C2 (stereo not drawn) [Compound 154, 2-amino-7-{2-chloro-6-[2-(4-methyl-piperazin-1-yl)-ethoxy]-phenyl}-4-methyl-7,8-dihydro-6H-quinazolin-5-one]"
13,< 1000,"Cc1nc(N)nc2c1C(=O)CC(c1c(OCCN3CCCCC3)cccc1-c1cccnc1F)C2 (stereo not drawn) [Compound 155, 2-amino-7-[2-(2-fluoro-pyridin-3-yl)-6-(2-piperidin-1-yl-ethoxy)-phenyl]-4-methyl-7,8-dihydro-6H-quinazolin-5-one]"
14,< 1000,"Cc1nc(N)nc2c1C(=O)CC(c1c(OCCN3CCNCC3)cccc1-c1cccnc1F)C2 (stereo not drawn) [Compound 156, 2-amino-7-[2-(2-fluoro-pyridin-3-yl)-6-(2-piperazin-1-yl-ethoxy)-phenyl]-4-methyl-7,8-dihydro-6H-quinazolin-5-one]"
15,< 1000,"Cc1nc(N)nc2c1C(=O)CC(c1c(OCCN3CCOCC3)cccc1-c1cccnc1F)C2 (stereo not drawn) [Compound 157, 2-amino-7-[2-(2-fluoro-pyridin-3-yl)-6-(2-morpholin-4-yl-ethoxy)-phenyl]-4-methyl-7,8-dihydro-6H-quinazolin-5-one]"
16,< 1000,"Cc1nc(N)nc2c1C(=O)CC(c1c(OCCN3CCN(C)CC3)cccc1-c1cccnc1F)C2 (stereo not drawn) [Compound 158, 2-amino-7-{2-(2-fluoro-pyridin-3-yl)-6-[2-(4-methyl-piperazin-1-yl)-ethoxy]-phenyl}-4-methyl-7,8-dihydro-6H-quinazolin-5-one]"
17,1000 to 10000,"Cc1nc(N)nc2c1C(=O)CC(c1cccc3ccccc13)C2 (stereo not drawn) [Compound 159, 2-amino-4-methyl-7-(1-naphthyl)-7,8-dihydroquinazolin-5(6H)-one]"
18,> 10000,"Cc1nc(N)nc2c1C(=O)CC(c1cccnc1)C2 (stereo not drawn) [Compound 160, 2-amino-4-methyl-7-pyridin-3-yl-7,8-dihydroquinazolin-5(6H)-one]"
19,< 1000,"Cc1nc(N)nc2c1C(=O)CC(c1cnccc1-c1ccccc1)C2 (stereo not drawn) [Compound 161, 2-amino-4-methyl-7-(4-phenylpyridin-3-yl)-7,8-dihydroquinazolin-5(6H)-one]"
20,> 10000,"Cc1nc(N)nc2c1C(=O)CC(c1ccccc1CCc1ccccc1)C2 (stereo not drawn) [Compound 162, 2-amino-4-methyl-7-[2-(2-phenylethyl)phenyl]-7,8-dihydroquinazolin-5(6H)-one]"
21,1000 to 10000,"Cc1nc(N)nc2c1C(=O)CC(c1ccccc1N1CCCC1=O)C2 (stereo not drawn) [Compound 163, 2-amino-4-methyl-7-[2-(2-oxo-pyrrolidin-1-yl)-phenyl]-7,8-dihydro-6H-quinazolin-5-one]"
22,< 1000,"Cc1nc(N)nc2c1C(=O)CC(c1ccccc1Nc1ccccc1)C2 (stereo not drawn) [Compound 164, 2-amino-4-methyl-7-(2-phenylamino-phenyl)-7,8-dihydro-6H-quinazolin-5-one]"
23,< 1000,"COC(=O)c1ccccc1C1CC(=O)c2c(C)nc(N)nc2C1 (stereo not drawn) [Compound 165, methyl 2-(2-amino-4-methyl-5-oxo-5,6,7,8-tetrahydroquinazolin-7-yl)benzoate]"
24,> 10000,"Cc1nc(N)nc2c1C(=O)CC(c1cccc(C(N)=O)c1)C2 (stereo not drawn) [Compound 166, 3-(2-amino-4-methyl-5-oxo-5,6,7,8-tetrahydroquinazolin-7-yl)benzamide]"
25,1000 to 10000,"Cc1nc(N)nc2c1C(=O)CC(c1ccccc1Oc1cc[nH]c(=O)c1)C2 (stereo not drawn) [Compound 167, 2-amino-4-methyl-7-[2-(2-oxo-1,2-dihydro-pyridin-4-yloxy)-phenyl]-7,8-dihydro-6H-quinazolin-5-one]"
26,> 10000,"Cc1nc(N)nc2c1C(=O)CC(c1c(O)cccc1Cl)C2 (stereo not drawn) [Compound 168, 2-Amino-7-(2-chloro-6-hydroxy-phenyl)-4-methyl-7,8-dihydro-6H-quinazolin-5-one]"
27,< 1000,"Cc1nc(N)nc2c1C(=O)CC(c1ccccc1-c1ccc[nH]c1=O)C2 (stereo not drawn) [Compound 169, 2-amino-4-methyl-7-[2-(2-oxo-1,2-dihydropyridin-3-yl)phenyl]-7,8-dihydroquinazolin-5(6H)-one]"
28,< 1000,"Cc1nc(N)nc2c1C(=O)CC(c1c(O)cccc1-c1cccnc1F)C2 (stereo not drawn) [Compound 170, 2-amino-7-[2-(2-fluoro-pyridin-3-yl)-6-hydroxy-phenyl]-4-methyl-7,8-dihydro-6H-quinazolin-5-one]"
29,< 1000,"Cc1nc(N)nc2c1C(=O)CC(c1ccccc1C1CCCCC1)C2 (stereo not drawn) [Compound 171, 2-amino-7-(2-cyclohexylphenyl)-4-methyl-7,8-dihydroquinazolin-5(6H)-one]"
30,1000 to 10000,"Cc1nc(N)nc2c1C(=O)CC(c1ccc(F)cc1C1CCCCC1)C2 (stereo not drawn) [Compound 172, 2-amino-7-(2-cyclohexyl-4-fluorophenyl)-4-methyl-7,8-dihydroquinazolin-5(6H)-one]"
